Key:
[1] = tested on: human lung carcinoma A-549; test: In vitro cytotoxicity, A-549 cell culture; assay type: cell-based; conditions: A-549 cells
Method: (§1) The antitumor activities of this compound has been determined “in vitro” in cell cultures of human lung carcinoma A-549 and human colon carcinoma HT-29. The procedure was carried out using the metnhodology methodology described by Raymond J. Bergeron et al. Biochem. Bioph. Res. Comm. 1984, 121(3), 848-854 and by Alan C. Schroeder et al. J. Med. Chem. 1981, 24 1078-1083.

[2] = tested on: human colon carcinoma HT-29; test: In vitro cytotoxicity, HT-29 cell culture; assay type: cell-based; conditions: HT-29 cells
Method: as §1

HSV II = conditions: Mv 2 Lu cells / HSV II; concentration giving the printed % reduction
HSV-1 = conditions: CV-1 cells / HSV-1
Aspergillus oryzae = conditions: 50 μg/disk
Penicillium notatum = conditions: 50 μg/disk
Tricophyton mentagrophy = conditions: 50 μg/disk
Saccharomyces cerevisiac = conditions: 50 μg/disk
Candida albicans = conditions: 50 μg/disk

C/C=C1\NC(=O)[C@H](Cc2ccccc2)NC(=O)[C@@H](C(C)C)NC(=O)[C@@H]([C@@H](C)CC)NC(=O)[C@H](NC(=O)[C@H](NC(=O)[C@H](CCCN)NC(=O)[C@H]2CCCN2C(=O)[C@H](NC(=O)[C@@H](NC(=O)[C@@H](NC(=O)[C@H](NC(=O)CCCC(C)C)C(C)C)[C@@H](C)O)C(C)C)C(C)C)[C@@H](C)CC)[C@@H](C)OC(=O)[C@H](C(C)C)NC1=O [Kahalalide F]
Cytoxicity (IC50) [1]: 2.5 µg/mL
Cytoxicity (IC50) [2]: 0.25 to 0.5 µg/mL
Antiviral (HSV II): 0.5 µg/mL
Antiviral (HSV-1): >8 µg/mL
Antiviral (VSV): >8 µg/mL
Antifungal 6 mm disk (Aspergillus oryzae): 19 mm
Antifungal 6 mm disk (Penicillium notatum): 26 mm
Antifungal 6 mm disk (Tricophyton mentagrophy): 34 mm
Antifungal 6 mm disk (Saccharomyces cerevisiac): neg
Antifungal 6 mm disk (Candida albicans): 16 mm

Source: patent publication USRE39496E1, “Kahalalide F and compositions and uses thereof” (PharmaMar, S.A., priority 1993, dated 2007)
